The values below come from PubChem BioAssay (NCI).

Where “and” joins values, the source holds several entries; their conditions need not be identical. Equal values may be shown once.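 Grown in 96-well plates, cells were treated for 48 hours with each compound at five concentrations. Insufficient inhibition: endpoint recorded as highest concentration tested. Here, GI50 denotes the concentration required for 50% inhibition of growth. Definition used: TGI = concentration required for complete inhibition of growth.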

Some test systems named below: COLO 205 colon; HCT-15 colon; HT29 colon; OVCAR-4 ovarian; RPMI-8226 leukemia; SF-539 CNS; SK-MEL-28 melanoma; SK-MEL-5 melanoma; SNB-75 CNS; U251 CNS.
Common to all, as to assay: NCI-60 cell line screen, 48 h

For `CN(C)S(=O)(=O)c1cccc(C(=O)Nc2nc(-c3ccc(F)c(F)c3)cs2)c1`, the GI50 with COLO 205 colon was 35.6 µM; with HCT-15 colon, over 40.4 µM; with HT29 colon, 14 µM; in the test with OVCAR-4 ovarian it was 4.62 µM; with RPMI-8226 leukemia, 4.51 µM; in the test with SF-539 CNS it was 15.3 µM. Further, the GI50 with SK-MEL-28 melanoma was 18.8 µM; in the test with SK-MEL-5 melanoma it was 3.81 µM; with SNB-75 CNS, 4.96 µM; in the test on U251 CNS, 11.5 µM. The TGI was over 100 µM in the test with COLO 205 colon; over 100 µM in the test with HCT-15 colon; over 100 µM with HT29 colon; over 84.1 µM in the test on OVCAR-4 ovarian; over 29.4 µM with RPMI-8226 leukemia; 58 µM with SF-539 CNS. Also, the TGI is over 100 µM with SK-MEL-28 melanoma, over 25.2 µM in the test on SK-MEL-5 melanoma, over 60.8 µM in the test on SNB-75 CNS and over 74 µM in the test on U251 CNS.
For `COc1ccc(-n2cc(-c3cc(OC)c(OC)c(OC)c3)nc2SCc2cccc(C#N)c2)cc1OC`, the GI50 with COLO 205 colon was over 100 µM; in the test with HCT-15 colon it was over 100 µM; in the test on HT29 colon, 14.1 µM; in the test with OVCAR-4 ovarian it was 2.12 µM; in the test with RPMI-8226 leukemia it was over 100 µM; in the test on SF-539 CNS it was 90.3 µM. Further, the GI50 in the test on SK-MEL-28 melanoma was 16.8 µM; in the test on SK-MEL-5 melanoma, 71.8 µM; in the test with SNB-75 CNS it was 0.924 µM; in the test with U251 CNS, over 100 µM. The TGI in the test on COLO 205 colon was over 100 µM; in the test with HCT-15 colon, over 100 µM; with HT29 colon, over 100 µM; in the test on OVCAR-4 ovarian it was 39.6 µM; in the test with RPMI-8226 leukemia it was over 100 µM; in the test on SF-539 CNS, over 100 µM. The TGI in the test with SK-MEL-28 melanoma, in the test on SK-MEL-5 melanoma, in the test with SNB-75 CNS and in the test on U251 CNS was over 100 µM each time.
`CCc1nc(N)nc(N)c1C#CC(C)c1ccc(-c2ccncc2)cc1Cl` (centres undefined): the GI50 was 0.0387 µM and 0.0515 µM in the test with COLO 205 colon; < 0.005 µM and 0.0127 µM with HCT-15 colon; 0.00589 µM and 0.012 µM with HT29 colon; 0.145 µM and 0.0946 µM in the test with RPMI-8226 leukemia; 0.0159 µM and 0.0423 µM in the test on SF-539 CNS; 0.0645 µM and 0.375 µM with SK-MEL-28 melanoma. For the same compound, the GI50 is 0.00753 µM and 0.0461 µM with SK-MEL-5 melanoma; 0.505 µM and 1.67 µM in the test with SNB-75 CNS; 0.0108 µM and 0.028 µM with U251 CNS. For the same compound, the TGI with COLO 205 colon was 2.58 µM and 11.7 µM; in the test on HCT-15 colon, 5.24 µM and 11.9 µM; in the test with HT29 colon it was 5.82 µM and 2.45 µM; in the test with OVCAR-4 ovarian it was 7.39 µM and 26.2 µM; in the test on RPMI-8226 leukemia, 1.7 µM and 10.8 µM; in the test with SF-539 CNS it was 1.56 µM and 10.4 µM. The TGI in the test on SK-MEL-28 melanoma is 4.52 µM and 17 µM; with SK-MEL-5 melanoma it was 0.781 µM and 1.98 µM; in the test on SNB-75 CNS, 2.76 µM and 9.74 µM; in the test with U251 CNS, 5.1 µM and 11.6 µM.
Turning to `COc1ccc(-c2nc(NC(=O)CS(=O)(=O)c3ccc(F)cc3)sc2C)cc1`, the GI50 in the test on COLO 205 colon is 15.3 µM; in the test on HCT-15 colon, 12.5 µM; in the test with HT29 colon it was 11 µM; in the test with OVCAR-4 ovarian it was 31 µM; in the test with RPMI-8226 leukemia, 17.6 µM; with SF-539 CNS, 16.9 µM. Moreover, the GI50 was 20.1 µM in the test with SK-MEL-28 melanoma, 12.8 µM in the test with SK-MEL-5 melanoma, 9.45 µM in the test on SNB-75 CNS and 19.2 µM in the test on U251 CNS. Moreover, the TGI with COLO 205 colon is 30.6 µM; with HCT-15 colon it was over 100 µM; in the test with HT29 colon, 39.4 µM; in the test on OVCAR-4 ovarian, over 100 µM; in the test with RPMI-8226 leukemia, 56.5 µM; with SF-539 CNS it was 37.2 µM. For the same compound, the TGI was determined as 62 µM with SK-MEL-28 melanoma, 25.9 µM in the test with SK-MEL-5 melanoma, 60.9 µM in the test with SNB-75 CNS and 51.3 µM in the test on U251 CNS.
Consider `Cc1cc(NC(=O)NCCOc2ccc(N3C(N)=NC(N)=NC3(C)C)cc2Cl)ccc1S(=O)(=O)F`, for which the GI50 was 1.4 µM with COLO 205 colon; 49 µM in the test with HCT-15 colon; 0.484 µM with HT29 colon; 2.75 µM in the test on OVCAR-4 ovarian; 3.46 µM in the test with RPMI-8226 leukemia; 2.93 µM in the test on SF-539 CNS. In addition, the GI50 was 3.59 µM in the test on SK-MEL-28 melanoma, 1.19 µM in the test with SK-MEL-5 melanoma, 1.53 µM with SNB-75 CNS and 0.716 µM in the test with U251 CNS. Besides, the TGI in the test on COLO 205 colon was 30.4 µM; with HCT-15 colon, over 100 µM; with HT29 colon it was 13.8 µM; in the test on OVCAR-4 ovarian, over 77.5 µM; with RPMI-8226 leukemia, over 55 µM; in the test on SF-539 CNS, 18.1 µM. For the same compound, the TGI with SK-MEL-28 melanoma was over 91.7 µM; in the test with SK-MEL-5 melanoma, 11.4 µM; with SNB-75 CNS, 48.3 µM; in the test on U251 CNS, over 72.9 µM.
As to `CN1CCN(C2=C(Cl)C(=O)c3ccccc3C2=O)CC1`, the GI50 in the test on COLO 205 colon was 1.51 µM; with HCT-15 colon it was 1.77 µM; with HT29 colon, 1.94 µM; with OVCAR-4 ovarian it was 1.59 µM; with RPMI-8226 leukemia it was 3.09 µM; in the test with SF-539 CNS, 2.08 µM. Moreover, the GI50 in the test on SK-MEL-28 melanoma was 1.75 µM; with SK-MEL-5 melanoma it was 1.55 µM; in the test with SNB-75 CNS, 1.91 µM; in the test with U251 CNS, 1.72 µM. For the same compound, the TGI in the test on COLO 205 colon came to 2.9 µM; in the test with HCT-15 colon, 3.41 µM; in the test on HT29 colon, 3.7 µM; in the test with OVCAR-4 ovarian, 2.95 µM; in the test with RPMI-8226 leukemia it was 9.61 µM; in the test with SF-539 CNS, 4.47 µM. For the same compound, the TGI with SK-MEL-28 melanoma was 3.18 µM; with SK-MEL-5 melanoma, 2.93 µM; with SNB-75 CNS, 4.91 µM; in the test with U251 CNS, 3.28 µM.
Turning to `COc1ccc(C2=Nn3c(nnc3-c3ccc(F)c(Cl)c3)SC2)cc1`, the GI50 in the test with COLO 205 colon, in the test on HCT-15 colon, in the test with HT29 colon, in the test with OVCAR-4 ovarian, in the test on RPMI-8226 leukemia and in the test with SF-539 CNS was over 100 µM in each case. The GI50 in the test with SK-MEL-28 melanoma was over 100 µM; in the test with SK-MEL-5 melanoma it was over 100 µM; in the test on SNB-75 CNS it was 63.3 µM; with U251 CNS, over 100 µM. The TGI in the test with COLO 205 colon, in the test on HCT-15 colon, in the test on HT29 colon, in the test with OVCAR-4 ovarian, in the test with RPMI-8226 leukemia and in the test with SF-539 CNS was over 100 µM each time. Besides, the TGI with SK-MEL-28 melanoma, in the test with SK-MEL-5 melanoma, in the test with SNB-75 CNS and with U251 CNS was over 100 µM each time.
Regarding `Nc1nc(N)nc(CCCCc2nc(N)nc(N)n2)n1`, the TGI with COLO 205 colon, in the test on HCT-15 colon, in the test with HT29 colon, in the test on OVCAR-4 ovarian, with RPMI-8226 leukemia and in the test on SF-539 CNS was over 100 µM each time. The TGI with SK-MEL-28 melanoma, in the test on SK-MEL-5 melanoma, in the test with SNB-75 CNS and with U251 CNS was over 100 µM throughout.
